Source: ChEMBL document CHEMBL1126639, “Centrally acting serotonergic and dopaminergic agents. 2. Synthesis and structure-activity relationships of 2,3,3a,4,9,9a-hexahydro-1H-benz[f]indole derivatives” (J Med Chem, 1993)

Key:
Mus musculus [1] = assay: Time of effect in the isolation-induced aggression behavioral assay in the mouse when a dose of 36 micro mol/kg is administered intraperitoneally; assay type: functional
Mus musculus [2] = assay: Time of effect in the face-to-face behavioral assay in the mouse when a dose of 36 micro mol/kg is administered perorally; assay type: functional
Rattus norvegicus [3] = assay: Inhibition of firing rates of dopaminergic neurons in the substantia nigra pars compacta by intravenous injection in rats; assay type: functional
Mus musculus [4] = assay: Time of effect in the isolation-induced aggression behavioral assay in the mouse when a dose of 0.0 micro mol/kg is administered intraperitoneally; assay type: functional
Mus musculus [5] = assay: Time of effect in the face-to-face behavioral assay in the mouse when a dose of 11 micro mol/kg is administered perorally; assay type: functional
D(2) dopamine receptor = D(2) dopamine receptor (Rattus norvegicus, UniProt P61169); assay: Binding affinity for [3H]raclopride-labeled dopamine receptor D2 in rat striatum; assay type: tissue-based
Mus musculus [6] = assay: Time of effect in the isolation-induced aggression behavioral assay in the mouse when a dose of 11 micro mol/kg is administered perorally; assay type: functional
Mus musculus [7] = assay: Time of effect in the isolation-induced aggression behavioral assay in the mouse when a dose of 3.6 micro mol/kg is administered perorally; assay type: functional
Mus musculus [8] = assay: Time of effect in the isolation-induced aggression behavioral assay in the mouse when a dose of 36 micro mol/kg is administered perorally; assay type: functional
Rattus norvegicus [9] = assay: Inhibition of firing rates of serotonergic neurons in the dorsal raphe nucleus by intravenous injection in rats; assay type: functional; conditions: Rattus norvegicus, Dorsal raphe nucleus, iv; read-out: ED50
Mus musculus [10] = assay: Time of effect in the face-to-face behavioral assay in the mouse when a dose of 0.0 micro mol/kg is administered perorally; assay type: functional
Rattus norvegicus [11] = assay: Effect on the synthesis rates of dopamine (DOPA accumulation) in the rat ventral limbic brain region at 10.7 uM/kg.; assay type: functional, Limbic system
Rattus norvegicus [12] = assay: Effect on the synthesis rates of serotonin (5-HTP accumulation) in the rat ventral limbic brain region 10.7 umol/kg.; assay type: functional, Limbic system
Mus musculus [13] = assay: Time of effect in the isolation-induced aggression behavioral assay in the mouse when a dose of 11 micro mol/kg is administered intraperitoneally; assay type: functional
Mus musculus [14] = assay: Time of effect in the face-to-face behavioral assay in the mouse when a dose of 0.4 micro mol/kg is administered subcutaneously; assay type: functional
Mus musculus [15] = organism: Mus musculus; assay: Time of effect in the face-to-face behavioral assay in the mouse […]; assay type: functional
Mus musculus [16] = assay: Time of effect in the isolation-induced aggression behavioral assay in the mouse when a dose of 0.4 micro mol/kg is administered intraperitoneally; assay type: functional
Mus musculus [17] = assay: Maximum decrease in temperature when compound is administered subcutaneously; assay type: functional
Rattus norvegicus [18] = assay: Effect on the synthesis rates of dopamine (DOPA accumulation) in the rat ventral limbic brain region at 10.7 micro mol/kg.; assay type: functional, Limbic system
Felis catus [19] = assay: Maximum decrease of arterial blood pressure at sympathetic nerve activity (SND) in anesthetized cat has been observed following 1 mg/kg dose; assay type: functional; design: scale not given: the % may be the effect or the level left
Mus musculus [20] = assay: Time of effect in the face-to-face behavioral assay in the mouse when a dose of 36 micro mol/kg is administered subcutaneously; assay type: functional
Mus musculus [21] = assay: Time of effect in the isolation-induced aggression behavioral assay in the mouse when a dose of 3.6 micro mol/kg is administered intraperitoneally (*,p<0.05); assay type: functional
Mus musculus [22] = assay: Effective dose on hypothermia in mouse when administered through peroral route; assay type: functional
Mus musculus [23] = assay: Time of effect in the isolation-induced aggression behavioral assay in the mouse when a dose of 36 micro mol/kg is administered intraperitoneally (*,p<0.05); assay type: functional
Mus musculus [24] = assay: Time of effect in the isolation-induced aggression behavioral assay in the mouse when a dose of 0.0 micro mol/kg is administered perorally; assay type: functional
Mus musculus [25] = assay: Time of effect in the face-to-face behavioral assay in the mouse when a dose of 3.6 micro mol/kg is administered subcutaneously; assay type: functional
Felis catus [26] = assay: Maximum decrease of sympathetic nerve activity (SND) in anesthetized cat; assay type: functional; design: scale not given: the % may be the effect or the level left
Mus musculus [27] = assay: Effective dose on hypothermia in mouse when administered subcutaneously; assay type: functional
Mus musculus [28] = assay: Maximum decrease in temperature when compound is administered through peroral route; assay type: functional
Rattus norvegicus [29] = assay: Effect on the synthesis rates of serotonin in the rat ventral limbic brain region 10.7 micro mol/kg.; assay type: functional, Limbic system
Mus musculus [30] = assay: Antagonism of apomorphine in reserpinized mice when a dose of 32 micro mol/kg is administered intraperitoneally; assay type: functional
Mus musculus [31] = assay: Antagonism of apomorphine in reserpinized mice when a dose of 0.03 micro mol/kg is administered intraperitoneally; assay type: functional
Mus musculus [32] = assay: Ability to stimulate dopaminergic systems by effect on locomotor activity in reserpinized mice when a dose of 0.03 micro mol/kg is administered intraperitoneally; assay type: functional
Rattus norvegicus [33] = assay: Inhibition of firing rates of dopaminergic neurons in the substantia nigra pars compacta by intravenous injection in rats.; assay type: functional
Mus musculus [34] = assay: Antagonism of apomorphine for 0-10 minutes in reserpinized mice when a dose of 0.03 micro mol/kg is administered intraperitoneally; assay type: functional
Mus musculus [35] = assay: Antagonism of apomorphine for 0-10 minutes in reserpinized mice when a dose of 32 micro mol/kg is administered intraperitoneally; assay type: functional
Mus musculus [36] = assay: Ability to stimulate dopaminergic systems by effect on locomotor activity in reserpinized mice when a dose of 32 micro mol/kg is administered intraperitoneally; assay type: functional
Mus musculus [37] = assay: Antagonism of apomorphine for 0-10 minutes in reserpinized mice when a dose of 0.3 micro mol/kg is administered intraperitoneally; assay type: functional
Mus musculus [38] = assay: Antagonism of apomorphine in reserpinized mice when a dose of 0.3 micro mol/kg is administered intraperitoneally; assay type: functional
Rattus norvegicus [39] = assay: Effect on the synthesis rates of serotonin in the rat ventral limbic brain region 3.2 micro mol/kg. Values are given as percent change from the control; assay type: functional, Limbic system
Mus musculus [40] = assay: Antagonism of apomorphine in reserpinized mice when a dose of 3.2 micro mol/kg is administered intraperitoneally; assay type: functional
Mus musculus [41] = assay: Antagonism of apomorphine for 10-20 minutes in reserpinized mice when a dose of 0.03 micro mol/kg is administered intraperitoneally; assay type: functional
Mus musculus [42] = assay: Ability to stimulate dopaminergic systems by effect on locomotor activity in reserpinized mice when a dose of 0.3 micro mol/kg is administered intraperitoneally; assay type: functional
Mus musculus [43] = assay: Antagonism of apomorphine for 0-10 minutes in reserpinized mice when a dose of 3.2 micro mol/kg is administered intraperitoneally; assay type: functional
Mus musculus [44] = assay: Antagonism of apomorphine for 10-20 minutes in reserpinized mice when a dose of 32 micro mol/kg is administered intraperitoneally; assay type: functional
Rattus norvegicus [45] = assay: Effect on the synthesis rates of dopamine in the rat ventral limbic brain region at 3.2 micro mol/kg; assay type: functional, Limbic system
Mus musculus [46] = assay: Ability to stimulate dopaminergic systems by effect on locomotor activity in reserpinized mice when a dose of 3.2 micro mol/kg is administered intraperitoneally; assay type: functional
Mus musculus [47] = assay: Antagonism of apomorphine for 10-20 minutes in reserpinized mice when a dose of 0.3 micro mol/kg is administered intraperitoneally; assay type: functional
Mus musculus [48] = assay: Antagonism of apomorphine for 10-20 minutes in reserpinized mice when a dose of 3.2 micro mol/kg is administered intraperitoneally; assay type: functional

D(2) dopamine receptor, sequence (P61169 whole entry): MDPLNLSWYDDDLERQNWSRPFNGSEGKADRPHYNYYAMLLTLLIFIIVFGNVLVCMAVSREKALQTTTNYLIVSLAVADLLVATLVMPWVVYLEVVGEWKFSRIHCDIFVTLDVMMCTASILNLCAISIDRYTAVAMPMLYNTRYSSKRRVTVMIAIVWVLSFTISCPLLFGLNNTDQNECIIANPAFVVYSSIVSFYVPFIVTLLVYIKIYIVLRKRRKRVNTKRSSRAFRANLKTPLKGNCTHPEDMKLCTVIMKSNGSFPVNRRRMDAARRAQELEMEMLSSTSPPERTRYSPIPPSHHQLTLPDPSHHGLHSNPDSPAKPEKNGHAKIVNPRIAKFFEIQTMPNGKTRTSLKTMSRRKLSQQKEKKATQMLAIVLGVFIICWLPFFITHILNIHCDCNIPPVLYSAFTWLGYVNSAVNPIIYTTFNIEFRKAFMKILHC

With `C=CCN1CC[C@H]2Cc3c(cccc3OC)C[C@@H]21` the Time (Mus musculus [1]) was 83 s, the Time (Mus musculus [2]) was 0.9 s and the ED50 (Rattus norvegicus [3]) was 4.75 µmol/kg. It also gave a Time (Mus musculus [4]) of 5 s, a Time (Mus musculus [5]) of 0.7 s and a Ki (D(2) dopamine receptor) greater than 1000 nM. It also gave a Time (Mus musculus [6]) of 63 s, a Time (Mus musculus [7]) of 36 s and a Time (Mus musculus [8]) of 219 s. It also gave an ED50 (Rattus norvegicus [9]) of 3.97 µmol/kg, a Time (Mus musculus [10]) of 0.3 s and a Control (Rattus norvegicus [11]) of 29%. For the same molecule, the Control (Rattus norvegicus [12]) was 4% and the Time (Mus musculus [13]) was 46 s.
`C=CCN1CC[C@@H]2Cc3c(cccc3OC)C[C@H]21` (racemic) gave a Time (Mus musculus [14]) of 1.5 s, a Time (Mus musculus [15]) of 0.9 s and a Time (Mus musculus [16]) of 3 s. For the same molecule, the Max temperature decrease (Mus musculus [17]) was 7.8, the Control (Rattus norvegicus [18]) was -26 and the Control (Felis catus [19]) was 63%. For the same molecule, the Time (Mus musculus [4]) was 3 s, the Ki (D(2) dopamine receptor) was greater than 1000 nM and the Time (Mus musculus [6]) was 218 s. For the same molecule, the Time (Mus musculus [20]) was 6.9 s, the Time (Mus musculus [7]) was 88 s and the Time (Mus musculus [21]) was 147 s. It also gave an ED50 (Mus musculus [22]) of 4.6 µM/kg, a Time (Mus musculus [23]) of 522 s and a Time (Mus musculus [24]) of 73 s. The Time (Mus musculus [25]) was 3.6 s, the Control (Felis catus [26]) was 78% and the ED50 (Mus musculus [27]) was 2.6 µM/kg. It also gave a Time (Mus musculus [8]) of 393 s, a Max temperature decrease (Mus musculus [28]) of 9.9 and an ED50 (Rattus norvegicus [9]) of 0.14 µmol/kg. It also gave a Control (Rattus norvegicus [29]) of -39.
`CN1CCc2cccc3c2[C@H]1Cc1ccc(O)c(O)c1-3` [APOMORPHINE] was tested, and the Locomotor activity (Mus musculus [30]) was 113, the Locomotor activity (Mus musculus [31]) was 119 and the Locomotor activity (Mus musculus [32]) was 22. The ED50 (Rattus norvegicus [33]) was 0.031 µmol/kg, the Locomotor activity (Mus musculus [34]) was 78 and the Locomotor activity (Mus musculus [35]) was 69. The Locomotor activity (Mus musculus [36]) was 1184, the Locomotor activity (Mus musculus [37]) was 73 and the Locomotor activity (Mus musculus [38]) was 135. It also gave a Control (Rattus norvegicus [39]) of 17%, a Locomotor activity (Mus musculus [40]) of 139 and a Locomotor activity (Mus musculus [41]) of 86. The Locomotor activity (Mus musculus [42]) was 150, the Locomotor activity (Mus musculus [43]) was 52 and the Locomotor activity (Mus musculus [44]) was 66. The Control (Rattus norvegicus [45]) was -55%, the Locomotor activity (Mus musculus [46]) was 1777 and the Locomotor activity (Mus musculus [47]) was 96. For the same molecule, the Locomotor activity (Mus musculus [48]) was 42.
